Measurements published in ChEMBL document CHEMBL1153652, “Synthesis and biological activity of modified enediyne chemotypes” (Bioorg Med Chem Lett, 1994).

What was measured:
[1] = test system: Nucleic Acid; assay: In vitro DNA cleaving activity which induce cell filamentation was evaluated by inducement of the SOS response at a dose of 1000 ug/ml.; type: functional
[2] = test system: Nucleic Acid; assay: In vitro ability to cleave DNA using supercoiled pM2 DNA without beta-mercaptoethanol at a drug concentration of 2E-5; Greater activity; type: functional
[3] = test system: Mus musculus; assay: In vivo relative median survival time of drug treated and control mice in murine Madison 109 (M109) lung carcinoma cells at 16 mg/kg/inj.; type: functional
[4] = test system: HCT-116; assay: Inhibitory concentration was determined for cytotoxicity in HCT116 human colon cancer cell line.; type: functional, cell-based
[5] = test system: Nucleic Acid; assay: In vitro ability to cleave DNA using supercoiled pM2 DNA with beta-mercaptoethanol at a drug concentration of 2E-5; Greater activity; type: functional
[6] = test system: Nucleic Acid; assay: In vitro DNA cleaving activity which induce cell filamentation was evaluated by inducement of the SOS response at a dose of 40 ug/ml.; type: functional
[7] = test system: Nucleic Acid; assay: In vitro DNA cleaving activity which induce cell filamentation was evaluated by inducement of the SOS response at a dose of 200 ug/ml.; type: functional
[8] = test system: Nucleic Acid; assay: In vitro ability to cleave DNA using supercoiled pM2 DNA with beta-mercaptoethanol at drug concentrations of 2E-5; Greater activity; type: functional
[9] = test system: Mus musculus; assay: In vivo relative median survival time of drug treated and control mice in murine Madison 109 (M109) lung carcinoma cells at 64 mg/kg/inj.; type: functional
[10] = test system: Nucleic Acid; assay: In vitro ability to cleave DNA using supercoiled pM2 DNA without beta-mercaptoethanol at drug concentrations of 2E-5; Greater activity; type: functional
[11] = test system: HCT-116; assay: Inhibitory concentration was determined for cytotoxicity in HCT116 human colon cancer cell line; type: functional, cell-based

SMILES | Area [1] [mm²] | DNA cleavage [2] | T/C [3] [%] | IC50 [4] [nM] | DNA cleavage [5] | Area [6] [mm²] | Area [7] [mm²] | DNA cleavage [8] | T/C [9] [%] | DNA cleavage [10] | IC50 [11] [nM]
O=C1C2=CCCC1(O)C#C/C=C\C#C[C@H]2O (stereo partly specified) | 1620 | Greater activity | 144 | 100 | Greater activity | 427 | 954 | – | – | – | –
O=C1C2=CCCC1(O)C#CC1=C(C#C[C@H]2O)CCC1 (stereo partly specified) | 162 | – | – | – | – | 0 | 75 | Greater activity | 147 | Greater activity | 2200
O=C1C2=CCCC1(O)C#Cc1ccccc1C#C[C@H]2O (stereo partly specified) | 0 | – | – | 1800 | – | 0 | 0 | Greater activity | 107 | Greater activity | –
